Experimental data reported in US20220033434A1, “ANDROGEN RECEPTOR NUCLEIC ACIDS AND USES THEREOF” (Avidity Biosciences, Inc., priority 2016, published 2022).
In the oligonucleotide strings, read from the 5' end, every base follows the letter of its sugar. An asterisk marks phosphorothioate; unmarked linkages are phosphodiester. Other units and linkages are bracketed, terminal groups are in braces. A string of capitals states the bases alone. d = 2'-deoxy (DNA); m = 2'-O-methyl; f = 2'-fluoro

How the values were obtained:
Format in all cases: cell-based, human
AR mRNA [1] = experiment: AR mRNA downregulation by RT-qPCR at 5 nM siRNA in 22RV1 cells; conditions: 24 hrs post-transfection
Protocol: (§1) Focusing on siRNAs targeting AR sequences exons 1 and 2, the ability of these siRNAs to downregulate AR mRNA at a concentration of 5 nM was determined by RT-qPCR. For this purpose, siRNAs were transfected into 22RV1 and LNCaP cells as described above. At 24 hrs post-transfection, RNA was harvested from cells using a Qiagen RNeasy® Plus Mini Kit or Stratec InviTrap® RNA Cell HTS96 kit. The concentration of each isolated RNA was determined via A260 measurement using a NanoDrop spectrophotometer. RNA samples were reverse transcribed to cDNA using the High Capacity RNA to cDNA Kit (Life Technologies) according to the manufacturer's instructions. cDNA samples were then quantified by qPCR using AR-specific probes and results normalized to either endogenous β-actin or PPIB using the standard 2^−ΔΔCt method. These studies identified 6 siRNAs that at a concentration of 5 nM down regulated AR mRNA in 22RV1 and LNCaP cells by more than 80% compared to controls (Table 4).

AR mRNA [2] = experiment: AR mRNA IC50 and maximal KD, siRNA at various concentrations, LNCaP cells, qPCR probes exon junctions 1/2 or 4/5
Protocol: as §1
(§2) To determine the concentration required to reduce AR expression by 50% (IC50) and maximal KD activity, these siRNAs were transfected into LNCaP, C4-2, and 22RV1 cells at various concentrations starting at 100 nM. C4-2 (MD Anderson) is an LNCaP subline that has been selected for resistance against clinically used AR antagonists (Wu et al., “Derivation of androgen-independent human LNCaP prostatic cancer cell sublines: Role of bone stromal cells,” International J Cancer 1994; 57:406-412). Cells were harvested 48 h post-transfection; RNA was prepared and analyzed as stated above. For these experiments, specific AR qPCR probes located at the exon junctions 1/2 or 4/5 were used that recognize most mRNAs of relevant AR isoforms or primarily full length AR mRNA, respectively. All tested siRNAs lowered AR expression with subnanomolar potency to 70% in 22RV1 cells and to ≥90% in LNCaP and C4-2 cells (Table 5). […]

AR FL(1) = experiment: AR protein knock-down by Western blot after siRNA transfection in 22RV1 cells: AR FL(1); conditions: 5 nM siRNA, 50 h post transfection, compared to controls
Method in brief: (§3)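 Western blot of RIPA lysates (30 ug/lane) probed with an anti-AR N-terminal antibody recognising full-length and splice-variant AR, tubulin as reference, fluorescent readout. Cells received 5 nM siRNA; harvest 72 h post-transfection for LNCaP, 50 h for 22RV1.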

[3] = test system: AR FL (full length AR T877A LBD mutant); experiment: AR protein knock-down by Western blot after siRNA transfection in LNCaP cells: AR FL; conditions: 5 nM siRNA, 72 h post transfection, compared to controls
Method in brief: as §3

[4] = test system: AR target gene expression (PSA, PSMA); experiment: AR, PSA and PSMA levels by qRT-PCR in hormone therapy resistant 22RV1 cells, siRNA versus Enzalutamide; conditions: 5 nM siRNA (24 h + 20 h DMSO) or 10 μM Enzalutamide 20 hours
Source text: (§4) To monitor regulation of AR target genes as a consequence of siRNA-mediated changes in AR […], LNCaP cells were transfected with various concentrations of XD-01829 (also referred to as XD-0189), and the levels of AR and the Prostate Specific Antigen (PSA) monitored by qRT-PCR. PSA expression is positively regulated by AR and used clinically as a biomarker for AR activity in prostate cancer patients. […] A similar experiment compared the expression of AR, PSA and the Prostate-Specific Membrane Antigen (PSMA) in response to treatment with the AR antagonist Enzalutamide or AR siRNA XD-01829 (or XD-0189). PSMA expression is negatively regulated by AR. For these experiments, hormone therapy resistant 22RV1 cells were transfected with 5 nM of either a scrambled control siRNA (negative control, Enzalutamide group) or XD-01829 (or XD-0189) as described above. After incubation for 24 hours, the negative control and XD-01829 (or XD-0189) groups were treated with DMSO, and the enzalutamide group with 10 μM Enzalutamide. After incubation for 20 hours RNAs were prepared as outlined above and AR, PSA, and PSMA levels evaluated by qRT-PCR.

AR mRNA [5] = experiment: AR mRNA downregulation by RT-qPCR at 5 nM siRNA in LNCaP cells; conditions: 24 hrs post-transfection
Protocol: as §1

[6] = test system: Prostate Specific Antigen (PSA); experiment: AR and PSA levels by qRT-PCR after siRNA transfection in LNCaP cells; conditions: various concentrations, 3 days after transfection
Source text: as §4

AR mRNA [7] = experiment: AR mRNA IC50 and maximal KD, siRNA at various concentrations, 22RV1 cells, qPCR probes exon junctions 1/2 or 4/5
Protocol: as §1, §2

AR mRNA [8] = experiment: AR mRNA IC50 and maximal KD, siRNA at various concentrations, C4-2 cells, qPCR probes exon junctions 1/2 or 4/5
Protocol: as §1, §2

AR-SV(2) = experiment: AR protein knock-down by Western blot after siRNA transfection in 22RV1 cells: AR-SV(2); conditions: 5 nM siRNA, 50 h post transfection, compared to controls
Method in brief: as §3

AR-SV(3) = experiment: AR protein knock-down by Western blot after siRNA transfection in 22RV1 cells: AR-SV(3); conditions: 5 nM siRNA, 50 h post transfection, compared to controls
Method in brief: as §3

[9] = AR qPCR probe at exon junction 1/2, 48 h post-transfection
[10] = AR qPCR probe at exon junction 1/2, 48 h post-transfection, read-out: IC50 (nM), LNCaP, Exon 1/2
[11] = AR qPCR probe at exon junction 4/5, 48 h post-transfection
[12] = AR qPCR probe at exon junction 4/5, 48 h post-transfection, read-out: IC50 (nM), LNCaP, Exon 4/5
[13] = AR qPCR probe at exon junction 1/2, 48 h post-transfection, read-out: IC50 (nM), 22RV1, Exon 1/2
[14] = AR qPCR probe at exon junction 4/5, 48 h post-transfection, read-out: IC50 (nM), 22RV1, Exon 4/5
[15] = AR qPCR probe at exon junction 1/2, 48 h post-transfection, read-out: IC50 (nM), C4-2, Exon 1/2
[16] = AR qPCR probe at exon junction 4/5, 48 h post-transfection, read-out: IC50 (nM), C4-2, Exon 4/5

Row | Substance | % KD AR RNA 22RV1 (AR mRNA [1]) [%] | max KD (%), LNCaP, Exon 1/2 (AR mRNA [2]; [9]) [%] | IC50 (AR mRNA [2]; [10]) [nM] | max KD (%), LNCaP, Exon 4/5 (AR mRNA [2]; [11]) [%] | IC50 (AR mRNA [2]; [12]) [nM] | % KD AR Protein 22RV1 AR FL(1) (AR FL(1)) [%] | % KD AR Protein LNCaP AR FL [3] [%] | regulation of AR target gene expression (PSA, PSMA) [4] | % KD AR RNA LNCaP (AR mRNA [5]) [%] | AR and PSA levels [6] | max KD (%), 22RV1, Exon 1/2 (AR mRNA [7]; [9]) [%] | IC50 (AR mRNA [7]; [13]) [nM] | max KD (%), 22RV1, Exon 4/5 (AR mRNA [7]; [11]) [%] | IC50 (AR mRNA [7]; [14]) [nM] | max KD (%), C4-2, Exon 1/2 (AR mRNA [8]; [9]) [%] | IC50 (AR mRNA [8]; [15]) [nM] | max KD (%), C4-2, Exon 4/5 (AR mRNA [8]; [11]) [%] | IC50 (AR mRNA [8]; [16]) [nM] | % KD AR Protein 22RV1 AR-SV(2) (AR-SV(2)) [%] | % KD AR Protein 22RV1 AR-SV(3) (AR-SV(3)) [%]
1 | XD-01829: AR siRNA with chemical modification, Id # 2822; sense X05353 (SEQ ID NO: 183), antisense X05354 (SEQ ID NO: 184) (sense mGmUfGmUfCmAfCmUfAmUfGmGfAmGfCmUfCmUfCdT*dT; antisense fGfAmGfAmGfCmUfCmCfAmUfAmGfUmGfAmCfAmCdT*dT) | 86 | 94.2 | 0.016 | 92.3 | 0.016 | 97 | 91 | regulate AR target gene expression | 92 | highly correlated | 72.1 | 0.038 | 68.1 | 0.018 | 94.7 | 0.013 | 92.6 | 0.011 | 99 | 97
2 | XD-01826: AR siRNA with chemical modification, Id # 2817; sense X05347 (SEQ ID NO: 177), antisense X05348 (SEQ ID NO: 178) (sense mUmCfUmGfGmGfUmGfUmCfAmCfUmAfUmGfGmAfGdT*dT; antisense fCfUmCfCmAfUmAfGmUfGmAfCmAfCmCfCmAfGmAdT*dT) | 89 | 84.6 | 0.041 | 86.0 | 0.035 | 87 | 91 | – | 81 | – | 52.4 | 0.146 | 64.8 | 0.057 | 86.5 | 0.049 | 87.0 | 0.046 | 92 | 93
